# Laboratory results published in publication PMC4884932, “Selective brain penetrable Nurr1 transactivator for treating Parkinson's disease” (Oncotarget, 2016).
# Legend:
# [1] = tested on: tyrosine hydroxylase (TH)-positive DA neurons; assay: DA neuron survival in primary ventral midbrain (VMB) culture; type: cell-based, mouse; details: primary VMB neurons, dose-dependent
# Procedure: Ventral midbrain (VMB) from E13.5-14.5 C57BL/6 mouse embryos were dissected, triturated and plated on poly-D-lysine coated 12 well plates or glass coverslips with the serum-free chemically-defined Neurobasal medium, supplemented with 2% B27, 0.5mM L-glutamine, 50I.U./ml penicillin and 50μg/ml streptomycin (Gibco-BRL). […] For each time point, cells were washed once with phosphate buffered saline and fixed with 4% paraformaldehyde for TH immunofluorescent staining. For cell counting, 10 frames were randomly captured from each well using a Leica fluorescent microscope and a minimum of four replicates for each dose and each time point were analyzed for each experiment.
# [2] = IRX4204 content in the brain by LC/MS/MS; type: in vivo; details: male, SD, oral, rat, 7 days repeated dosing 10 mg/kg/day gavage, one hour after the last dose
# Procedure: (§1) Male SD rats underwent daily gavage with 10mg/kg/day for seven days. One hour after the last dose, rats were anesthetized with ketamine/xylazine and transcardially perfused with cold saline. Brains were isolated and homogenized with two volumes of phosphate buffer using ultrasonication. A 100μl sample of the homogenate was transferred to a 1.7ml centrifuge tube and mixed with 20μl of internal standard (100ng/ml of 13-cis retinoic acid-d5 in diluent). Then the sample was deproteinized with 300μl of acetonitrile, centrifuged, and the supernatant was transferred to an autosampler vial for analysis by LC/MS/MS. The calibration standards and the internal standard (13-cis retinoic acid-d5) were diluted in acetonitrile:butylatedhydroxyanisole:ethoxyquin:triethylamine (100:0.05:0.02:0.1, v/w/v/v).
# The LC/MS system was comprised of Waters Acquity Ultra Performance Liquid Chromatography (UPLC) coupled to a XEVO-TQS (Waters). The samples were analyzed by reverse-phase HPLC using a Waters Atlantis T3 column (150 × 2.1mm, 5um). The mobile phase was nebulized using heated nitrogen in a Z-spray source/interface set to electrospray negative ionization mode. The ionized compounds were detected using MS/MS. […] The detection was linear between 2.5nM to 10nM.
# [3] = tested on: Nurr1 downstream genes in the SN; assay: Expression of Nurr1 downstream genes in the substantia nigra after oral treatment; type: in vivo; details: rat, 7 days oral 10 mg/kg/day
# Procedure: as §1
# Total RNA from VMB neurons or rat substantia nigra were isolated using the RNeasy Mini Kit from Qiagen (Valencia, CA) and 1μg of total RNA was reverse transcribed using SuperScript III first-strand synthesis supermix for qRT-PCR from Invitrogen (Carlsbad, CA) according to the manufacturer's instruction. Quantitative RT-PCR was performed using Maxima SYBR Green master mix (Fermentas) in ABI Prism 7900HT in four replicates with primers amplifying the target genes. Expression level of actin was used as an internal control. Data were normalized using the 2^−ΔΔCt method. Levels of target gene mRNAs were expressed relative to those in vehicle control groups and plotted in GraphPad Prism.
# [4] = Plasma protein binding by equilibrium dialysis, rat plasma; type: in vitro ADME; details: K3EDTA control plasma, 37°C, read-out: plasma protein binding, bound (converted)
# Procedure: (§2) SD male rats were grouped into four groups: vehicle, 1mg/kg/day, 3mg/kg/day and 10mg/kg/day. Rats were treated with the designated dose by daily gavage. Acute plasma PK was conducted on day one and acute-on-chronic plasma PK was conducted on day 24. Pharmacokinetic assessment was conducted by collecting of blood at baseline (prior gavage), 0.25, 0.5, 1, 2, 4, 8, 12 and 24h post gavage. […] The spiked plasma was dialyzed at 37°C against an isotonic sodium phosphate buffer to achieve equilibrium. At the end of dialysis, the plasma and buffer level of IRX4204 were quantified by LC/MS/MS.
# 6-OHDA lesioned rats [5] = assay: Apomorphine-induced rotations in 6-OHDA lesioned rat model of PD; type: in vivo; details: 10mg/kg/day gavage for three weeks, day 24 post-lesion
# Procedure: (§3) All surgical procedures were performed under general anesthesia with ketamine/xylazine. 2μl 6-OHDA (20 mg/ml in 0.02% ascorbic acid) was stereotaxically injected into the right striatum of male SD rats. Lesion coordinates were set according to bregma and dura in mm: ML-3.7; AP-1.0; DV-5.5. The injection rate was 2μl/5 min and the injecting needle was left for 2 minutes after injection to avoid back flow. Apomorphine-induced rotations (see below) were assessed three days post-lesion and rats with ≥ 30 full contralateral rotation/30 minutes were included in the study.
# Rats were randomly grouped into vehicle control group (n = 11) and drug treatment group (n = 10). […] The control group received DMSO/corn oil (vehicle). The treatment continued for three weeks.
# Apomorphine (APO)-induced rotations were performed as described by Fisher et al.. Briefly, immediately after apomorphine injection (0.5 mg/kg body weight), animals were placed in an open area. A camera monitored the animal behavior and computerized software analyzed the number of contralateral and ipsilateral rotations in 30 minutes testing. Rotations were assessed three days post-lesion and after three weeks of treatment (24 days post-lesion). Data were expressed as average contralateral turns per minute.
# [6] = Plasma protein binding by equilibrium dialysis, human plasma; type: in vitro ADME; details: K3EDTA control plasma, 37°C, read-out: plasma protein binding, bound (converted)
# Procedure: as §2
# 6-OHDA lesioned rats [7] = assay: Dopamine and metabolites in the striatum by HPLC, 6-OHDA lesioned rats; type: in vivo, rat; details: 10mg/kg/day gavage for three weeks, p < 0.01
# Procedure: as §3
# Rats were randomly grouped into vehicle control group (n = 11) and drug treatment group (n = 10). […] The control group received DMSO/corn oil (vehicle). […]
# The left and right striatum were isolated and homogenized with artificial cerebrospinal fluid and centrifuged at x10,000 g for 15 minutes. Protein content of the supernatant was measured by Bradford assay (Bio-Rad). Dopamine, HVA and DOPAC were measured using an isocratic HPLC system with electrochemical detection, consisting of a pump (ESA model 582 [ESA Chelmsford, MA]), automatic injector (ESA model 542 Autosampler), and a Coulochem III detector (ESA) in conjunction with a guard cell (ESA model 5020) and an analytical cell (ESA model 5014B). […] Data were collected and analyzed using the EZStart software (Agilent Technologies, Santa Clara, CA). […]
smiles,measurement,setting,value
CC(/C=C/[C@@H]1C[C@]1(C)c1ccc2c(c1)C(C)(C)CCC2(C)C)=C\C(=O)O [IRX4204],survival of TH-positive DA neurons,[1],increased survival
same,concentration at 1 h,[2],11.5 ± 2.9 nM
same,DAT mRNA level in the SN,[3],significantly increased
same,DDC mRNA level in the SN,[3],significantly increased
same,DJ-1(PARK7) mRNA level in the SN,[3],significantly increased
same,GRFα1 mRNA level in the SN,[3],significantly increased
same,Pitx3 mRNA level in the SN,[3],significantly increased
same,TH mRNA level in the SN,[3],significantly increased
same,VMAT-2 (VMAT2) mRNA expression in the SN,[3]; did not reach statistical significance,trend towards an increase
same,fraction unbound at 1 ug/ml,[4],0.0249
same,APO-induced contralateral rotations versus baseline,6-OHDA lesioned rats [5],did not differ significantly from baseline
same,fraction unbound at 1 ug/ml,[6],0.0064
same,striatal dopamine loss in the lesioned side,6-OHDA lesioned rats [7],much greater in the vehicle-treated group relative to the IRX4204 group
